Key:
[1] = test system: DM93 cells; assay: BrdU staining and flow cytometry (rereplication); format: cell-based, human; conditions: DM93, pevonedistat
Method: The effects of pevonedistat and/or silencing of cell cycle-associated proteins on cell cycle distribution or rereplication were assessed by flow cytometry according to the manufacturer's instructions. Different melanoma lines were transfected with si-GL2, si-CDT2, si-CDT1, si-SET8, si-p21, or si-geminin for a time ranging from 24 to 96 hours. At the end of treatment, cells were pulsed with BrdU (10 nM) for 1 hour in the dark prior to harvesting. Cells were washed with PBS and staining solution before the fixation and permeabilization steps according to the manufacturer's instructions. Cells were subsequently stained with anti-BrdU antibody solution for 20 minutes at room temperature, washed, and stained with 7-AAD solution for 30 minutes at 4° C. The cells were resuspended in 1 ml of staining buffer and kept overnight at 4° C. before analysis. Samples were analyzed on a FFACSCAN™ (Becton, Dickinson and Company, Franklin Lakes, N.J., United States of America), and different phases of the cell cycle were determined using FLOWJO® (FLOWJO, LLC, Ashland, Oreg., United States of America) and ModFit (Verity Software House, Topsham, Me., United States of America) software.

[2] = test system: DM13 cells; assay: Cell proliferation/viability MTT assay; format: cell-based; conditions: Homo sapiens, 96 hours
Method: (§1) Proliferation and viability of cultured cells was measured by CELLTITER96® Non-radioactive Cell Proliferation Assay (Promega Corporation; Madison, Wis., United States of America). Briefly, various wild type and mutant BRAF melanoma cells were seeded in 96 well plates and treated with pevonedistat, vemurafenib, or the combination pevonedistat and vemurafenib at various concentrations. Control cells were treated with DMSO. 96 hours following treatment, cells were stained with the dye solution according to the manufacturer's protocol. Absorbance was recorded at 570 nm and growth curves were established. To test the effect of transient exposure of melanoma cells to pevonedistat on rereplication and growth inhibition, washout experiments were conducted where melanoma cells or PIG3V melanocytes were treated with […] pevonedistat for different times (4, 8, 12, and 24 hours) before the drug was washed out by washing the cells twice with PBS, and adding drug-free fresh growth media to cells. Cells were counted every 24 hours using a COUNTESS™ Automated Cell Counter (INVITROGEN™, Carlsbad, Calif., United States of America), and harvested at the indicated times for PI staining and FACS analysis (cell cycle profile) or for immunoblotting.

[3] = test system: VMM1 melanoma cells; assay: Cell proliferation/viability MTT assay; format: cell-based; conditions: Homo sapiens, 96 hours
Method: as §1

[4] = test system: VMM39 cells; assay: Cell proliferation/viability MTT assay; format: cell-based; conditions: Homo sapiens, 96 hours
Method: as §1

[5] = test system: PIG3V or PIG1 immortalized but not malignant melanocytic cell lines; assay: Proliferation of immortalized non-malignant melanocytic cell lines; format: cell-based; conditions: Homo sapiens
[6] = test system: SLM2 xenografts; assay: Melanoma flank xenograft in nude mice; format: in vivo; conditions: 60 mg/kg; p=2.3×10^−3
Method: (§2) All animal experiments were performed after approval of animal protocols by the Animal Care and Use Committee (ACUC) of the University of Virginia. Animals were housed and handled in accordance with the guidelines of the ACUC of the University of Virginia. The effect of pevonedistat on melanoma growth was tested in flank xenograft models. Foxn1^nu (20-25 g body weight, 4-5 weeks old females) athymic nude immune-deficient mice (Harlan Laboratories, now Envigo, Indianapolis, Ind., United States of America) were used in this study. Pevonedistat was dissolved in sterile 10% DMSO containing PBS (stock 1 mM), filtered, and stored in −20° C. until use. DM93, VMM39, SLM2, DM331, or SK-MEL-24 (2×10^6) melanoma cells were implanted in both flanks of immune-deficient mice (n=12 mice per group) and tumor growth was monitored until they grow to an average volume of 150-200 mm^3, and mice were randomized into groups for treatment. Animals were administered 0.2 mL pevonedistat solution (30 or 60 mg/kg body weight as indicated) intraperitoneally on a schedule of two cycles of five-day treatment followed by five treatment-free days, for 3 weeks, or more as indicated. Control animals were treated with an equal volume of sterile vehicle (10% DMSO in PBS). Where indicated, mice received control rodent diet, or rodent diet with 417 mg/kg PLX4720 (Research Diets, Inc. New Brunswick, N.J., United States of America). Tumors were measured with an electronic caliper every other day for 3 weeks post-drug injection. Animal weight was recorded once a week to detect any weight loss due to the toxicity of drug treatment or tumor burden. At the end of the treatment, animals were euthanized and tumors harvested for further processing. The results shown are mean tumor volumes±s.e.m; *p<0.05, **p<0.01, ***p<0.001.

[7] = test system: VMM39 xenografts; assay: Melanoma flank xenograft in nude mice; format: in vivo; conditions: 60 mg/kg; p=1.8×10^−5
Method: as §2

[8] = test system: cullin ubiquitylation substrates (CDT2, CDT1, p21, p27) in DM93 cells; assay: Immunoblotting of cullin ubiquitylation substrates; format: cell-based, human; conditions: DM93, increasing doses for 24 hours; significant levels at 1 μM
Method: Melanoma cells were lysed with RIPA lysis buffer (50 mM Tris, pH 8.0; 150 mM NaCl, 1% NP-40; 0.5% sodium deoxycholate; 0.1% SDS; 1 mM Benzamidine-HCl; 0.5 μg/ml Leupeptin; 0.5 μg/ml Aprotinin; 1 μg/ml pepstatin; 20 mM NaF; 20 mM Na3VO4), and equal amounts of protein were electrophoretically separated in a polyacrylamide 8-12% gel (Bio-Rad Laboratories, Inc., Hercules, Calif., United States of America), trans-blotted to a nitrocellulose membrane, and incubated overnight with primary antibodies at 4° C. The following antibodies were used: Anti-p21 (C19), anti-p27 (C19), anti-p53 (DO-1), and anti-tubulin (10D8) were purchased from Santa Cruz Biotechnology, Inc. (California, United States of America). Antibodies against SET8, CHK1, CHK2, p-CHK1 (S375), p-CHK2 (T68), H2AX and p-H2AX (γH2AX; T139), and PARP were purchased from Cell Signaling Technology, Inc. (Danvers, Mass., United States of America). Anti-Cul3 was purchased from Bethyl Laboratories (Montgomery, Tex., United States of America). Anti-CDT1 and anti-CDT2 antibodies were described before (Abbas et al., 2010). The immunoblot signals were detected by enhanced chemiluminescence. For murine melanoma xenografts, tumors were isolated, washed three times with cold PBS, and frozen at −80° C. until use. […]

[9] = test system: SqCC/Y1 HNSCC cells; conditions: SqCC/Y1, 0.5 μM pevonedistat; cited from earlier work

NS(=O)(=O)OCC1CC(n2ccc3c(NC4CCc5ccccc54)ncnc32)CC1O [pevonedistat, ((1S,2S,4R)-4-(4-((1S)-2,3-Dihydro-H-inden-1-ylamino)-7H-pyrrolo(2,3-d)pyrimidin-7-yl)-2-hydroxycyclopentyl)methyl sulphamate]
cells with rereplication within the same cell cycle (BrdU labeling) ([1]; 24 hours): 17.3% | cells with rereplication within the same cell cycle (BrdU labeling) ([1]; 48 hours): 61.7% | IC50 [2]: 40 nM | IC50 [3]: 330 nM | IC50 [4]: 35 nM | IC50 [5]: > 500 nM | growth of SLM2 xenografts [6]: significantly inhibited the growth | growth of VMM39 xenografts [7]: significantly inhibited the growth | cullin ubiquitylation substrates CDT2, CDT1, p21 and p27 [8]: dose-dependent increase | apoptosis (% of cells) [9]: 55%

Reference: patent US20200397894A1, “COMPOSITIONS AND METHODS FOR TREATING CANCER” (University of Virginia Patent Foundation, priority 2016, published 2020)
